This note sets out measurements from US20230133132A1, “NAMPT MODULATORS” (Cytokinetics, Inc., priority 2020, published 2023).

The target in one assay is human NAMPT (Homo sapiens, UniProt P43490). Put plainly: Human recombinant enzyme assay (NMN fluorescence biochemical assay). How it is done: Compounds described herein were assayed for their ability to stimulate the synthesis of nicotinamide mononucleotide (NMN) by the enzyme NAMPT. The human recombinant enzyme assay measures the activation of the enzyme activity by compounds using recombinant enzyme and substrates in a buffered cell-free system. The assay conditions closely mimic cellular environments. Dose responses were measured using an assay to detect the formation of nicotinamide mono-nucleotide. All experiments were performed in the 384-well format. Generally, 0.5 μL of DMSO containing varying concentrations of the test compound was mixed with 10 μL of the enzyme reagent solution. Enzyme reactions were initiated with the addition of 10 μL of a solution containing the substrates. The final assay conditions were as follows: 6 nM human NAMPT, 2.5 mM ATP, 20 μM PRPP and 150 μM nicotinamide in 50 mM HEPES, pH 7.2, 1 mM DTT, 1 mM CHAPS 50 mM NaCl, 100 mM MgCl2. Following an incubation of 60 min at ambient temperature, 10 μL of 20% acetophenone in DMSO was added, followed by 10 μL of 2 M KOH and 40 μL of formic acid. The plates were read for fluorescence (Excitation/Emission=355 nm/460 nm) using an EnVision plate reader after 40 mins of incubation at ambient temperature.

For another assay, the target named is T1, endogenous NAMPT (Homo sapiens, UniProt P43490).
T1 construct: stimulate the endogenous NAMPT in a native cellular environment; endogenous in cells; host or cells: SH-SY5Y neuroblastoma cells
Put plainly: Cellular NAD+ modulation assay in SH-SY5Y cells. Conditions: 40 hours. The assay is classed as cell-based. Here is the method:
The compounds described herein were also assayed for their ability to stimulate the endogenous NAMPT in a native cellular environment in the cellular NAD+ modulation assay, which measures the ability of the compound to modulate cellular NAD levels. Increased levels of NAD are expected by compounds that permeate the cells and activate the catalytic activity of the endogenous NAMPT.
Neuroblastoma SH-SY5Y cells were grown in 1:1 mixture of Eagle's Minimum Essential Medium and F12 Medium, along with 10% fetal bovine serum, in a humidified incubator with an atmosphere of 95% air and 5% C02 at 37° C. The assays were initiated by plating 20 μL of SH-SY5Y cells in culture medium with 0.1% fetal bovine serum, at a density of 5000 cells per well to a 384-well Corning™ BioCoat™ Poly-D-Lysine Multiwell Plates. The plates were incubated in the 37° C. incubators for a period of 5 hours. Compounds in DMSO were added to the plates in a volume of 120 nL using the Labcyte Echo Liquid Handlers. 5 μL of a 1.5 uM Doxorubicin solution in assay medium is added to each well. The plates are then incubated for 40 hours. 30 μL of a readout-solution containing 0.2 U/mL Diaphorase enzyme, 40 uM resazurin, 10 uM FMN, 0.8 U/mL Alcohol dehydrogenase, 3% ethanol, 0.4 mg/mL bovine serum albumin, 0.2% Triton X-100 in 100 mM Tris-HCl, 30 mM EDTA, pH 8.4. The plates were read for fluorescence (Excitation/Emission=540 nm/590 nm) using an EnVision plate reader after 60 mins of incubation at ambient temperature.

[1] abbreviates: recombinant human NAMPT, NMN fluorescence, 60 min.
[2] abbreviates: 6 nM human NAMPT, 60 min, NMN formation by fluorescence.
Where [3] appears, read: doxorubicin added, cellular NAD readout.

T1 sequence (P43490 whole entry): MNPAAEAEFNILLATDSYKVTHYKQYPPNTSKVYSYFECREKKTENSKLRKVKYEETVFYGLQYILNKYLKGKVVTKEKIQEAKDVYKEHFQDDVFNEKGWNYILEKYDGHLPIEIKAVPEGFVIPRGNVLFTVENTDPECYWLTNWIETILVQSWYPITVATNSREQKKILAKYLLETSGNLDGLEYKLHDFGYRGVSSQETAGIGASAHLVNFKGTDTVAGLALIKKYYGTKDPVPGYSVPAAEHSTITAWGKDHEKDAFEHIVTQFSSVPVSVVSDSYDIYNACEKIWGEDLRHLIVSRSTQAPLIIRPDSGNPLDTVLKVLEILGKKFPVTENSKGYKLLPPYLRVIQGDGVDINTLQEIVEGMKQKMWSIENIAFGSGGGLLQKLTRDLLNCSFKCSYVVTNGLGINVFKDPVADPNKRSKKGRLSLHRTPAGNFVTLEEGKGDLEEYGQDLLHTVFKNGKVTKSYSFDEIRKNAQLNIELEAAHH
Sequence of human NAMPT (P43490 whole entry): as above

Regarding `CC(C)(O)CN1CCN(Cc2ccc(NC(=O)NCc3cn[nH]c3)cc2)CC1` [Comparator C, reference compound], the values for the EC50 at human NAMPT (setting [1]) and at endogenous NAMPT (doxorubicin) were 35.1 µM and more than 20.1 µM, respectively.

For `CC(C)(O)CN1CCN(Cc2ccc(NC(=O)NCc3cnco3)cc2)CC1` [Comparator D, reference compound], the EC50 was 36.5 µM on human NAMPT (setting [1]) and more than 20.1 µM at endogenous NAMPT (doxorubicin).

`CC(C)(O)CN1CCN(Cc2ccc(NC(=O)NCc3ccc(F)cc3)cc2)CC1` [Compound 167, {[(4-fluorophenyl)methyl]amino}-N-(4-{[4-(2-hydroxy-2-methylpropyl)piperazinyl]methyl}phenyl)carboxamide]: on human NAMPT (setting [2]), the “AC1.4 (the concentration of compounds that generates 40% higher activity over basal)” value came to 0.78 µM; the AC1.4 designation entry is “B (AC1.4 values that are between 0.5 μM and 2.5 μM)”. At human NAMPT (setting [1]), the EC50 is 7.5 µM. The molecule further registered an AC0.3 at endogenous NAMPT (setting [3]) of 1.2 µM. Also, the EC50 at endogenous NAMPT (doxorubicin) was 1.4 µM.

As to `CC(C)(O)CN1CCN(Cc2ccc(NC(=O)NCc3ccccc3)cc2)CC1` [Comparator A, reference compound], the “potency relative to compounds with a halo or methoxy substituent at the R^1 position, as measured by AC1.4” value at human NAMPT (comparison of AC1.4 values) is “five to ten times less potent”. In addition, the figures for the EC50 at human NAMPT (setting [1]) and at endogenous NAMPT (doxorubicin) were 10.6 µM and 2.3 µM, respectively.

Regarding `CC(C)(O)CN1CCN(Cc2ccc(NC(=O)NCc3ccc(Cl)cc3)cc2)CC1` [Compound 36, {[(4-chlorophenyl)methyl]amino}-N-(4-{[4-(2-hydroxy-2-methylpropyl)piperazinyl]methyl}phenyl)carboxamide], the “AC1.4 (the concentration of compounds that generates 40% higher activity over basal)” value on human NAMPT (setting [2]) amounted to 0.15 µM. At human NAMPT (setting [1]), the EC50 was 3.1 µM. Besides, on endogenous NAMPT (setting [3]), the AC0.3 stood at 0.15 µM and the AC0.3 designation result was “A (AC0.3 values that are less than 0.5 μM)”. In addition, the EC50 at endogenous NAMPT (doxorubicin) is 0.16 µM.

For `C[C@H](NCc1ccccc1)c1ccc(NC(=O)NCc2ccc(Cl)cc2)cc1` [Compound 40, [(4-{(1S)-1-[benzylamino]ethyl}phenyl)amino]-N-[(4-chlorophenyl)methyl]carboxamide], the “AC1.4 Human” value at human NAMPT (recombinant human NAMPT, NMN fluorescence, 60 min, class symbols) was “A (AC1.4 values that are less than 0.5 μM)”. For the same molecule, the AC0.3 result on endogenous NAMPT (doxorubicin, class symbols) is on record as “C (AC0.3 values that are greater than 2.5 μM)”.

As to `COc1ccc(CNC(=O)Nc2ccc(CN3CCN(CC(C)(C)O)CC3)cc2)cc1` [Compound 242, 1-(4-((4-(2-hydroxy-2-methylpropyl)piperazin-1-yl)methyl)phenyl)-3-(4-methoxybenzyl)urea], the “AC1.4 (the concentration of compounds that generates 40% higher activity over basal)” value at human NAMPT (setting [2]) stood at 0.42 µM. In addition, the EC50 was found to be 10.6 µM on human NAMPT (setting [1]) and 0.79 µM on endogenous NAMPT (doxorubicin). Also, the AC0.3 on endogenous NAMPT (setting [3]) came out at 0.86 µM.

Regarding `CC(C)(O)CN1CCN(Cc2ccc(NC(=O)NCc3ccncc3)cc2)CC1` [Comparator B, reference compound], the EC50 is 19.7 µM on human NAMPT (setting [1]) and more than 20.1 µM on endogenous NAMPT (doxorubicin).
